Each block holds one molecule with its values, some of them ahead of it.
Columns and labels:
Atg12-Bcl-2 interaction [1] = target: Atg12-Bcl-2 interaction (Homo sapiens, UniProt P10415); assay: Co-immunoprecipitation of Flag-Atg12 with endogenous Bcl-2, competition by Bcl-2 inhibitor; assay type: binding; conditions: Atg12 immunoprecipitates from HEK293 cells incubated with 10 μM ABT-737 vs DMSO; western blot (FIG. 5G)
Text: (A) Sequence alignment of the BH3-like region of Atg12 with BH3 domains of the Bcl-2 family using ClustalW. […] Species abbreviations: Hs, Homo sapiens; Sc, Saccharomyces cerevisiae; Dm, Drosophila melanogaster. (B) Co-immunoprecipitation of Flag-tagged hAtg12 and Bcl-2 or Mcl-1 from HEK293 cells co-transfected as indicated. (C) Co-immunoprecipitation of Flag-tagged hAtg12 with endogenous Bcl-2 and Mcl-1 from HEK293 cells. (D) Co-immunoprecipitation of endogenous Atg12 and endogenous Mcl-1 in HEK293 and HeLa cells. (E) Co-immunoprecipitation of Flag-tagged Atg12 and endogenous Bcl-2 in HeLa cells treated with STS (3 μM; 4 h). (F) Co-immunoprecipitation of Flag-tagged Atg12 and endogenous Bcl-2 in HEK293 cells co-expressing a control plasmid (CAT) or HA-tagged BAD. (G) Flag-Atg12 was immunoprecipitated from HEK293 cells and incubated with either 10 μM ABT-737 or DMSO (vehicle control). Co-precipitating Bcl-2 was assessed by western blot after elution with excess Flag peptide. (H) Co-immunoprecipitation of wild-type Atg12 or Atg12/D64 mutants with Bcl-2 in HEK293 cells co-transfected as indicated.

Atg12-Mcl-1 interaction = Atg12-Mcl-1 interaction (Homo sapiens, UniProt Q07820); assay: Co-immunoprecipitation of Flag-Atg12 with Mcl-1, competition by Bcl-2 inhibitor; assay type: binding; conditions: Atg12 immunoprecipitates from HEK293 cells incubated with 10 μM ABT-737 (FIG. 5G)
Chain of Atg12-Mcl-1 interaction (Q07820 whole entry): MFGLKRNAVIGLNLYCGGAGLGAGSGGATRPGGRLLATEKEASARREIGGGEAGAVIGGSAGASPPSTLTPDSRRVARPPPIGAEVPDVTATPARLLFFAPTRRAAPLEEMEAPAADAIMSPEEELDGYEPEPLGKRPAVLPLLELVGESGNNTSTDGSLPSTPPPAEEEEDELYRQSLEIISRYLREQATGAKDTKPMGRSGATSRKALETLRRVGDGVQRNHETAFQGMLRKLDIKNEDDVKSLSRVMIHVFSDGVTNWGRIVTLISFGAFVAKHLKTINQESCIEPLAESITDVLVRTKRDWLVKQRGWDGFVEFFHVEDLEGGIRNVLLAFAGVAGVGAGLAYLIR

[2] = tested on: Flag-tagged human Atg12 (wild type)
Atg12-Bcl-2 interaction [3] = assay: Co-immunoprecipitation of Flag-tagged Atg12 and endogenous Bcl-2 in STS-treated HeLa cells; assay type: cell-based, human; conditions: STS 3 μM, 4 h (FIG. 5E)
Text: (A) Sequence alignment of the BH3-like region of Atg12 with BH3 domains of the Bcl-2 family using ClustalW. The four conserved BH3 hydrophobic residues are colored in grey, and the conserved “GD” residues in black. Arrow indicates critical Asp64 residue in hAtg12. Species abbreviations: Hs, Homo sapiens; Sc, Saccharomyces cerevisiae; Dm, Drosophila melanogaster. (B) Co-immunoprecipitation of Flag-tagged hAtg12 and Bcl-2 or Mcl-1 from HEK293 cells co-transfected as indicated. (C) Co-immunoprecipitation of Flag-tagged hAtg12 with endogenous Bcl-2 and Mcl-1 from HEK293 cells. (D) Co-immunoprecipitation of endogenous Atg12 and endogenous Mcl-1 in HEK293 and HeLa cells. (E) Co-immunoprecipitation of Flag-tagged Atg12 and endogenous Bcl-2 in HeLa cells treated with STS (3 μM; 4 h). (F) Co-immunoprecipitation of Flag-tagged Atg12 and endogenous Bcl-2 in HEK293 cells co-expressing a control plasmid (CAT) or HA-tagged BAD. (G) Flag-Atg12 was immunoprecipitated from HEK293 cells and incubated with either 10 μM ABT-737 or DMSO (vehicle control). Co-precipitating Bcl-2 was assessed by western blot after elution with excess Flag peptide. (H) Co-immunoprecipitation of wild-type Atg12 or Atg12/D64 mutants with Bcl-2 in HEK293 cells co-transfected as indicated. In B, C, F-H, DAP1-Flag was used instead of Flag-Atg12 as a negative control for co-immunoprecipitation. […]

Bax = assay: Immunoprecipitation of conformationally active Bax (6A7 antibody) from HeLa cells; assay type: cell-based, human; conditions: HeLa cells treated with STS; conformation-specific antibody 6A7 (FIG. 11C)
Description: Conformationally active Bax was immunoprecipitated with anti-Bax antibody (6A7, Abcam). Cell pellets from STS-treated HeLa cells (3 μM, 4 h; Sigma Aldrich) were resuspended in 1% CHAPS (3-[(3-cholamidopropyl)-dimethylammonio]-1-propanesulfonate) buffer supplemented with protease and phosphatase inhibitors. Pre-cleared cell lysates were incubated with 2 μg antibody overnight at 4° C., followed by incubation with protein G agarose beads. Beads were washed with lysis buffer and boiled in sample buffer. Western blot detection of total Bax was performed with anti-Bax N20 antibody (Santa Cruz Biotechnology).
Next, it was assessed whether the depletion of Atg12 affected early events in the apoptotic cascade that are regulated by anti-apoptotic Bcl-2 proteins. […] Importantly, Bax activation was restored upon enforced expression of an siRNA-resistant construct of Atg12 (FIG. 11D).

Flag-tagged Bcl-2 = target: T1, Flag-tagged Bcl-2 (UniProt P10415 1-239); assay: immunoprecipitation of Flag-tagged Bcl-2, western blot for endogenous Atg12
T1 construct: Expressed in HEK293 cells and immunoprecipitated on anti-FLAG beads; also called Flag-Bcl-2; not shown: Flag tag
T1 sequence (P10415 whole entry): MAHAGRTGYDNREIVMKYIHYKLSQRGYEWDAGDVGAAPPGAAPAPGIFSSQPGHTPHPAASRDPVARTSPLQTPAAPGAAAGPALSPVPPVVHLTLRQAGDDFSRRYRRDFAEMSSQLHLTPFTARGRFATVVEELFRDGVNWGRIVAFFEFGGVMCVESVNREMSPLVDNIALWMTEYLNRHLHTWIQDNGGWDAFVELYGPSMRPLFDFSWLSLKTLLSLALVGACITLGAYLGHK
Description: (§1) For co-immunoprecipitation, HEK293 cells were transiently transfected with the indicated plasmids. Cell pellets were lysed in B buffer (0.4% NP-40, 0.5 mM EDTA, 100 mM KCl, 20 mM Hepes pH 7.6, 20% glycerol) supplemented with protease and phosphatase inhibitors. […] In Example 7, an irrelevant tagged protein (DAP1-Flag) was used as control.
The conjugation of Atg12 to Atg5 is an essential step in the process of autophagy. In order to establish whether Bcl-2 binds to free Atg12, or to the Atg5-Atg12 conjugate, the nature of endogenous Atg12 that is co-immunoprecipitated with Bcl-2 was examined more closely. Upon immunoprecipitation of Flag-tagged Bcl-2 from HEK293 cells, a single band corresponding to the size of unconjugated Atg12 was observed, with no traces at the expected conjugate size (FIG. 7A, left). Furthermore, neither of Atg12's reported conjugation partners, Atg5 or Atg3, could be detected on this blot. […] The interaction between Bcl-2 and free Atg12 is significant, considering that unconjugated Atg12 represents only a small fraction of cellular Atg12, whereas the majority of the protein is conjugated to Atg5, even under basal conditions when autophagy is not induced (FIG. 7A, right).

Bcl-2 G145A = target: T2, Bcl-2 G145A (UniProt P10415 1-239); assay: co-immunoprecipitation, transiently transfected HEK293 cells
T2 construct: Co-transfected with Flag-Atg12 in HEK293 cells; also called point mutation in the BH1 domain of Bcl-2
T2 sequence (P10415 whole entry G145A, the tested form may be a part): as the sequence (P10415 whole entry) above, with G145A counted along it
Description: as §1
Therefore experiments were performed to test whether Atg12 was able to interact with members of each subgroup, specifically Bcl-2 and Mcl-1. In transiently transfected HEK293 cells, wild-type Bcl-2 co-immunoprecipitated with Flag-Atg12 (FIG. 5B). […] The specificity of the interaction was further confirmed by reciprocal co-immunoprecipitation, in which Flag-Bcl-2 pulled down ectopically expressed Atg12 (FIG. 6B). In addition, Mcl-1 also co-immunoprecipitated with Flag-Atg12 upon co-expression (FIG. 5B), and Flag-Atg12 interacted with endogenous Bcl-2 and Mcl-1 (FIG. 5C). Thus, Atg12 is able to bind promiscuously to both subgroups of Bcl-2-related proteins.

Chain of Atg12-Bcl-2 interaction (Homo sapiens, UniProt P10415) (P10415 whole entry, the tested form may be a part): as the sequence (P10415 whole entry) above

Molecule: recombinant p38 purified from bacteria
in-vitro kinase assay (33P-ATP); phospho-mapping by mass spectrometry [2]: p38 phosphorylates Atg12 in an in-vitro kinase assay; the site of phosphorylation was Thr65 in Atg12

Molecule: CN[C@@H]1C[C@H]2O[C@@](C)([C@@H]1OC)n1c3ccccc3c3c4c(c5c6ccccc6n2c5c31)C(=O)NC4 [STS, staurosporine]
binding of Flag-Atg12 to endogenous Bcl-2 (Atg12-Bcl-2 interaction [3]): increased | Bax activation (Bax): activation of Bax

B2: Flag-tagged human Atg12 (wild type) (other)
chain: MAEEPQSVLQLPTSIAAGGEGLTDVSPETTTPEPPSSAAVSPGTEEPAGDTKKKIDILLKAVGDTPIMKTKKWAVERTRTIQGLIDFIKKFLKLVASEQLFIYVNQSFAPSPDQEVGTLYECFGSDGKLVLHYCKSQAWG
notes: Expressed from pcDNA3 in HEK293 or HeLa cells and pulled down on anti-FLAG M2 beads; Also used here for the recombinant Atg12 made in E. coli and purified on FLAG-agarose (kinase assay); also called Flag-Atg12; Flag-tagged hAtg12; not shown: Flag tag
binding result (Bcl-2 G145A): no binding

Results, then the molecule that gave them:

interaction between Flag-Atg12 and endogenous Bcl-2 (Atg12-Bcl-2 interaction [1]): disrupted | binding of Atg12 to Mcl-1 (Atg12-Mcl-1 interaction): not affected
Molecule: CN(C)CC[C@H](CSc1ccccc1)Nc1ccc(S(=O)(=O)NC(=O)c2ccc(N3CCN(Cc4ccccc4-c4ccc(Cl)cc4)CC3)cc2)cc1[N+](=O)[O-] [ABT-737]

binding result (Flag-tagged Bcl-2): binds
B1: Atg12 (human; untagged, endogenous, or tag not stated) (other)
chain: B2 chain
notes: also called hAtg12; endogenous Atg12
